From patent US11267811B2, “Small molecule inhibitors of galectin-3” (BRISTOL-MYERS SQUIBB COMPANY, priority 2017, dated 2022)
Read-outs that look alike come from different tables or passages of the source.

Biological target: His-tagged recombinant human Gal-3 (hGal-3) (Homo sapiens (Human), UniProt P17931)
Experiment: Gal-3 HTRF assay (His-tagged hGal-3 binding to B-ASF);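 further: compounds preincubated 30 min with hGal-3, then 1 h with B-ASF, detection via terbium anti-His antibody and streptavidin d2. Control with B-ASF counts as full signal, omitting B-ASF as background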
[1] = HTRF, hGal-3 15 nM, B-ASF 15 nM, read-out: hGal-3 IC50

Sequence of His-tagged recombinant human Gal-3 (hGal-3) (P17931 whole entry): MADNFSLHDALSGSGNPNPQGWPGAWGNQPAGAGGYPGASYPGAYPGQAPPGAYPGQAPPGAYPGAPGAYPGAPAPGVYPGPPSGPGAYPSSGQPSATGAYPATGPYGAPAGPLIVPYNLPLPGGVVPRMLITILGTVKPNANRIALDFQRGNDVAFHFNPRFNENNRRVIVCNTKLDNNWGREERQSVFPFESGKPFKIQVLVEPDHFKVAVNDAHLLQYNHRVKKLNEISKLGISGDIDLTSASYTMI

Structure (SMILES) | IC50 [1] [µM] | further results
CO[C@@H]1[C@@H](n2cc(-c3cc(F)c(Cl)c(F)c3)nn2)[C@@H](O)[C@@H](CO)O[C@H]1c1nncn1-c1cc(Cl)ccc1C(F)(F)F [Example 308] |  | IC50 (read-out: hGal3 IC50): 0.022 µM
Cc1nc2ccc(-n3cnnc3[C@@H]3O[C@H](CO)[C@H](O)[C@H](n4cc(-c5cc(F)c(F)c(F)c5)nn4)[C@H]3O)cc2s1 [Example 132] | 0.02 | 
OC[C@H]1O[C@@H](c2nncn2-c2ccc(-c3nnn[nH]3)cc2)[C@H](O)[C@@H](n2cc(-c3cc(F)c(F)c(F)c3)nn2)[C@H]1O [Example 111] | 0.82 | 
Cc1nc2cc(-n3cnnc3[C@@H]3O[C@H](CO)[C@H](O)[C@H](n4cc(-c5cc(F)c(F)c(F)c5)nn4)[C@H]3O)ccc2s1 [Example 143] | 0.41 | 
N#Cc1cccc(-n2cnnc2[C@@H]2O[C@H](CO)[C@H](O)[C@H](n3cc(-c4cc(F)c(F)c(F)c4)nn3)[C@H]2O)c1 [Example 153] | 0.14 | 
Cc1nc2ccc(-n3ncnc3[C@@H]3O[C@H](CO)[C@H](O)[C@H](n4cc(-c5ccc(Br)c(F)c5)nn4)[C@H]3O)cc2s1 [Example 216] |  | IC50 (read-out: hGal3 IC50): 0.05 µM
O=S1(=O)Cc2ccc(-n3cnnc3[C@@H]3O[C@H](CO)[C@H](O)[C@H](n4cc(-c5cc(F)c(F)c(F)c5)nn4)[C@H]3O)cc2C1 [Example 99] | 0.89 | 
Cc1nc([C@@H]2O[C@H](CO)[C@H](O)[C@H](n3cc(-c4cc(F)c(Cl)c(Cl)c4)nn3)[C@H]2O)n(-c2cc(Cl)ccc2Cl)n1 [Example A54] |  | IC50 (read-out: hGal IC50): 0.048 µM
OC[C@H]1O[C@@H](c2ncnn2-c2cccc(F)c2)[C@H](O)[C@@H](n2cc(-c3cc(F)c(F)c(F)c3)nn2)[C@H]1O [Example 38] | 0.39 | 
OC[C@H]1O[C@@H](c2ncnn2-c2ccncc2)[C@H](O)[C@@H](n2cc(-c3cc(F)c(F)c(F)c3)nn2)[C@H]1O [Example 42] | 0.46 | 
Cc1nc([C@@H]2O[C@H](CO)[C@H](O)[C@H](n3cc(-c4cc(F)c(Cl)c(F)c4)nn3)[C@H]2O)n(-c2cc(CC(F)(F)F)ccc2Cl)n1 [Example A40] |  | IC50 (read-out: hGal IC50): 0.126 µM
OC[C@H]1O[C@@H](n2nncc2-c2ccc3c(c2)OCO3)[C@H](O)[C@@H](n2cc(-c3cc(F)c(F)c(F)c3)nn2)[C@H]1O [Example 4] | 0.386 | 
Cc1nc([C@@H]2O[C@H](CO)[C@H](O)[C@H](n3cc(-c4cc(F)c(Cl)c(F)c4)nn3)[C@H]2O)n(-c2ccc3nc(C)sc3c2)n1 [Example A36] |  | IC50 (read-out: hGal IC50): 0.053 µM
OC[C@H]1O[C@@H](c2ncnn2Cc2ccccc2)[C@H](O)[C@@H](n2cc(-c3cc(F)c(F)c(F)c3)nn2)[C@H]1O [Example 28] | 1.47 | 
CO[C@@H]1[C@@H](n2cc(-c3ccc(Cl)c(F)c3)nn2)[C@@H](O)[C@@H](CO)O[C@H]1c1nc(C)nn1-c1cc(Cl)ccc1C [Example 258] | 0.06 | 
O=[N+]([O-])c1cccc(-n2ncnc2[C@@H]2O[C@H](CO)[C@H](O)[C@H](n3cc(-c4cc(F)c(F)c(F)c4)nn3)[C@H]2O)c1 [Example 35] | 0.7 | 
Cc1nc2ccc(-n3ncnc3[C@@H]3O[C@H](CO)[C@H](O)[C@H](n4cc(-c5cc(F)cc(F)c5)nn4)[C@H]3O)cc2s1 [Example 215] |  | IC50 (read-out: hGal3 IC50): 0.14 µM
Cc1nc2ccc(-n3ncnc3[C@@H]3O[C@H](CO)[C@H](O)[C@H](n4cc(-c5cc(F)c(Cl)c(F)c5)nn4)[C@H]3O)cc2s1 [Example 210] |  | IC50 (read-out: hGal3 IC50): 0.04 µM
OC[C@H]1O[C@@H](c2nncn2-c2ccc(Cl)cc2Cl)[C@H](O)[C@@H](n2cc(-c3cc(F)c(F)c(F)c3)nn2)[C@H]1O [Example 83] | 0.9 | 
OC[C@H]1O[C@@H](c2nncn2-c2cccc(C(F)(F)F)c2)[C@H](O)[C@@H](n2cc(-c3cc(F)c(F)c(F)c3)nn2)[C@H]1O [Example 80] | 0.33 | 
Cc1nc([C@@H]2O[C@H](CO)[C@H](O)[C@H](n3cc(-c4ccc(Br)c(F)c4)nn3)[C@H]2O)n(-c2cc(Cl)cnc2C(F)(F)F)n1 [Example A71] |  | IC50 (read-out: hGal IC50): 0.049 µM
CO[C@@H]1[C@@H](n2cc(-c3cc(F)c(F)c(F)c3)nn2)[C@@H](O)[C@@H](CO)O[C@H]1c1ncnn1-c1ccc2nc(C)sc2c1 [Example 191] | 0.06 | 
OC[C@H]1O[C@@H](c2nncn2-c2ccc(Cc3ccncc3)cc2)[C@H](O)[C@@H](n2cc(-c3cc(F)c(F)c(F)c3)nn2)[C@H]1O [Example 90] | 0.52 | 
Cc1nc2ccc(-n3ncnc3[C@@H]3O[C@H](CO)[C@H](O)[C@H](n4cc(-c5ccc(NS(C)(=O)=O)c(F)c5)nn4)[C@H]3O)cc2s1 [Example 203] |  | IC50 (read-out: hGal3 IC50): 2.12 µM
Cc1nc([C@@H]2O[C@H](CO)[C@H](O)[C@H](n3cc(-c4ccc(Cl)c(F)c4)nn3)[C@H]2O)n(-c2cc(C(F)(F)F)ccc2Cl)n1 [Example 255] |  | IC50 (read-out: hGal3 IC50): 0.07 µM
CC(=O)Nc1ccc(-c2cn([C@H]3[C@@H](O)[C@@H](CO)O[C@@H](c4ncnn4-c4ccc5nc(C)sc5c4)[C@@H]3O)nn2)cc1F [Example 204] |  | IC50 (read-out: hGal3 IC50): 5 µM
Cc1nc([C@H]2C[C@@H](n3cc(-c4cc(F)c(Cl)c(F)c4)nn3)[C@@H](O)[C@@H](CO)O2)n(-c2cc(Cl)ccc2C)n1 [Example 263] |  | IC50 (read-out: hGal3 IC50): 0.12 µM
COCCO[C@@H]1[C@@H](n2cc(-c3cc(F)c(F)c(F)c3)nn2)[C@@H](O)[C@@H](CO)O[C@H]1n1nncc1-c1cccc(Cl)c1 [Example 13] | 0.571 | 
Cc1nc2ccc(-n3ncnc3[C@@H]3O[C@H](CO)[C@H](O)[C@H](n4cc(-c5cc(F)cc(C(F)(F)F)c5)nn4)[C@H]3O)cc2s1 [Example 228] |  | IC50 (read-out: hGal3 IC50): 0.42 µM
OC[C@H]1O[C@@H](c2nncn2-c2cc(Cl)ccc2Cl)[C@H](O)[C@@H](n2cc(-c3ccc(Cl)c(F)c3)nn2)[C@H]1O [Example 304] |  | IC50 (read-out: hGal3 IC50): 0.067 µM

Continued, in another order:

IC50 [1] [µM] | Structure (SMILES) | further results
0.07 | Cc1nnc([C@@H]2O[C@H](CO)[C@H](O)[C@H](n3cc(-c4cc(F)c(F)c(F)c4)nn3)[C@H]2O)n1-c1cccc(Cl)c1 [Example 272, (2S,3R,4R,5R,6R)-2-(4-(3-chlorophenyl)-5-methyl-4H-1,2,4-triazol-3-yl)-6-(hydroxymethyl)-4-(4-(3,4,5-trifluorophenyl)-1H-1,2,3-triazol-1-yl)tetrahydro-2H-pyran-3,5-diol] | 
0.1 | OC[C@H]1O[C@@H](c2nncn2-c2cnc3ccccc3c2)[C@H](O)[C@@H](n2cc(-c3cc(F)c(F)c(F)c3)nn2)[C@H]1O [Example 123] | 
0.05 | Cc1nc([C@@H]2O[C@H](CO)[C@H](O)[C@H](n3cc(-c4cc(F)c(F)c(F)c4)nn3)[C@H]2O)n(-c2cc(C(F)(F)F)ccc2Cl)n1 [Example 70] | 
0.02 | CO[C@@H]1[C@@H](n2cc(-c3cc(F)c(Cl)c(F)c3)nn2)[C@@H](O)[C@@H](CO)O[C@H]1c1nc(C)nn1-c1ccc2ncsc2c1 [Example A5, (2R,3R,4S,5R,6S)-6-(1-(Benzo[d]thiazol-6-yl)-3-methyl-1H-1,2,4-triazol-5-yl)-4-(4-(4-chloro-3,5-difluorophenyl)-1H-1,2,3-triazol-1-yl)-2-(hydroxymethyl)-5-methoxytetrahydro-2H-pyran-3-ol] | 
0.329 | OC[C@H]1O[C@@H](n2nncc2-c2ccc(Cl)cc2)[C@H](O)[C@@H](n2cc(-c3cc(F)c(F)c(F)c3)nn2)[C@H]1O [Example 7] | 
0.22 | Cc1nc([C@@H]2O[C@H](CO)[C@H](O)[C@H](n3cc(-c4cc(F)c(F)c(F)c4)nn3)[C@H]2O)n(-c2cncc(Cl)c2)n1 [Example 65] | 
0.05 | Cc1nc([C@@H]2O[C@H](CO)[C@H](O)[C@H](n3cc(-c4cc(F)c(F)c(F)c4)nn3)[C@H]2O)n(-c2ccc3nc(C)sc3c2)n1 [Example 57, (2R,3R,4R,5R,6S)-2-(hydroxymethyl)-6-(3-methyl-1-(2-methylbenzo[d]thiazol-6-yl)-1H-1,2,4-triazol-5-yl)-4-(4-(3,4,5-trifluorophenyl)-1H-1,2,3-triazol-1-yl)tetrahydro-2H-pyran-3,5-diol] | 
0.58 | OC[C@H]1O[C@@H](c2nncn2-c2ccc(-c3cnco3)cc2)[C@H](O)[C@@H](n2cc(-c3cc(F)c(F)c(F)c3)nn2)[C@H]1O [Example 82] | 
0.69 | CN(C)c1ccc(-n2cnnc2[C@@H]2O[C@H](CO)[C@H](O)[C@H](n3cc(-c4cc(F)c(F)c(F)c4)nn3)[C@H]2O)cc1 [Example 91] | 
1.56 | OC[C@H]1O[C@@H](c2ncnn2-c2c(F)cccc2F)[C@H](O)[C@@H](n2cc(-c3cc(F)c(F)c(F)c3)nn2)[C@H]1O [Example 29] | 
0.79 | O=C(O)c1ccccc1-n1ncnc1[C@@H]1O[C@H](CO)[C@H](O)[C@H](n2cc(-c3cc(F)c(F)c(F)c3)nn2)[C@H]1O [Example 33] | 
0.83 | OC[C@H]1O[C@@H](c2nncn2-c2cccc(Oc3ccccc3)c2)[C@H](O)[C@@H](n2cc(-c3cc(F)c(F)c(F)c3)nn2)[C@H]1O [Example 78] | 
0.88 | OC[C@H]1O[C@@H](n2nncc2-c2ccc(Cl)c(Cl)c2)C[C@@H](n2cc(-c3cc(F)c(F)c(F)c3)nn2)[C@H]1O [Example 15, (2R,3R,4R,6R)-6-(5-(3,4-dichlorophenyl)-1H-1,2,3-triazol-1-yl)-2-(hydroxymethyl)-4-(4-(3,4,5-trifluorophenyl)-1H-1,2,3-triazol-1-yl)tetrahydro-2H-pyran-3-ol] | 
0.48 | CS(=O)(=O)Nc1cccc(-n2cnnc2[C@@H]2O[C@H](CO)[C@H](O)[C@H](n3cc(-c4cc(F)c(F)c(F)c4)nn3)[C@H]2O)c1 [Example 113] | 
10 | Cn1ncc(-c2cccc(Cl)c2)c1[C@@H]1O[C@H](CO)[C@H](O)[C@H](n2cc(-c3cc(F)c(F)c(F)c3)nn2)[C@H]1O [Example 287, (2S,3R,4R,5R,6R)-2-(4-(3-chlorophenyl)-1-methyl-1H-pyrazol-5-yl)-6-(hydroxymethyl)-4-(4-(3,4,5-trifluorophenyl)-1H-1,2,3-triazol-1-yl)tetrahydro-2H-pyran-3,5-diol] | 
0.33 | CC(C)Oc1cccc(-n2cnnc2[C@@H]2O[C@H](CO)[C@H](O)[C@H](n3cc(-c4cc(F)c(F)c(F)c4)nn3)[C@H]2O)c1 [Example 105] | 
0.05 | Cc1nc([C@H]2C[C@@H](n3cc(-c4cc(F)c(F)c(F)c4)nn3)[C@@H](O)[C@@H](CO)O2)n(-c2ccc3ncsc3c2)n1 [Example 186] | 
